{"source": "paper PMC7542351", "about": "“Construction of a new T7 promoter compatible Escherichia coli Nissle 1917 strain for recombinant production of heme-dependent proteins” (Microbial Cell Factories, 2020)", "biological_target": "T1, Cph1 (Synechocystis sp. PCC 6803, UniProt Q55168)", "T1 construct": "His6 tag; ~80 kDa; pET-cph1; co-produced with HO1 and PcyA in E. coli; cell-free lysate", "T1 sequence (Q55168 whole entry)": "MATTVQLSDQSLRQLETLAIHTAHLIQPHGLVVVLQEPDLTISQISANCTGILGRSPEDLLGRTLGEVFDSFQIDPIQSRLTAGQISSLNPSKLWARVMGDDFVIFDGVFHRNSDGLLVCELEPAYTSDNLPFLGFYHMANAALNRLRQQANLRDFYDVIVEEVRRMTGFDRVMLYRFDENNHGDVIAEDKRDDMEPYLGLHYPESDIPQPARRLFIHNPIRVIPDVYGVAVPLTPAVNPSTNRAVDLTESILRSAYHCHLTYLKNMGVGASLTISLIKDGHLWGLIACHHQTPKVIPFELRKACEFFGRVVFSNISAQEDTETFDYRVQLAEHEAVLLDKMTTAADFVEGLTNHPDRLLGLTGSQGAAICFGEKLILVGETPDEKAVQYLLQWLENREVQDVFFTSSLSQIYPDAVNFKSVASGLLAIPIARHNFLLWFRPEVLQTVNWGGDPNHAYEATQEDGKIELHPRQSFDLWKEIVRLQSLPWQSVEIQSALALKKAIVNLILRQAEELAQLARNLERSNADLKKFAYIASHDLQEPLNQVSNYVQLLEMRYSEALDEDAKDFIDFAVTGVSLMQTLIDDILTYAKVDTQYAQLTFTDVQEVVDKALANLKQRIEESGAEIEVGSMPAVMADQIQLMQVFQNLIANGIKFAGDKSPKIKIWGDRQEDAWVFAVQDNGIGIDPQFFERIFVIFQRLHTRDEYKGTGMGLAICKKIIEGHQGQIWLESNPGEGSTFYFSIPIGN", "test": "red/far-red induced difference spectroscopy of holo-phytochrome", "type": "biochemical", "conditions": "cell-free lysate; pH 8.0, 25 °C; 630 nm / 730 nm light; PCB made in vivo by co-expressed HO1 and PcyA, and 40 µM PCB added; covalent", "data": [{"smiles": "CC=C1C(=Cc2[nH]c(C=C3N=C(C=C4NC(=O)C(CC)=C4C)C(C)=C3CCC(=O)O)c(CCC(=O)O)c2C)NC(=O)C1C", "note": "(stereo not shown) [phycocyanobilin]", "values": [{"measurement": "red/far-red induced difference spectroscopy of holo-phytochrome", "result": "Comparison of difference spectra before and after incubation with PCB indicated a higher saturation"}]}]}
